Test results as given in patent US5508293A, “Pyridinecarboxyimidamide compounds and the use thereof” (Kirin Beer Kabushiki Kaisha, priority 1992, dated 1996).

How the values were obtained:
[1] = test system: spontaneously hypertensive rats (SHR), mean blood pressure; experiment: Antihypertensive activities on spontaneously hypertensive rat (intravenously); type: in vivo, rat (male spontaneously hypertensive rats; conditions: iv, anesthetized male SHR, i.v., cumulative dosing, read-out: ED20 (the dose which lowered the blood pressure by 20%)
Method: Animals were anesthetized with urethane: α-chloralose.
A cannula was inserted into the carotid artery for measuring the mean blood pressure via a pressure transducer. A test compound was cumulatively administered through the cannula inserted into the femoral vein with an interval of 30 minutes. Variation of blood pressure was determined as the percentage change in the blood pressure before administration of the test compound, and the ED20 (the dose which lowered the blood pressure by 20%) was calculated from a dose-response curve.

beagles, blood pressure = experiment: Antihypertensive activity on anesthetized beagles (intravenously); type: in vivo, dog (beagles)
Method: Antihypertensive activities of 5-amino-N-cyano-N'-[2-(2-chlorophenyl)ethyl]-3-pyridinecarboximidamide (N-cyano-N'-[2-(2-chlorophenyl)ethyl]-5-(3aminopyridine)carboximidamide; Compound No. 6) according to the present invention was assessed by comparison with those of N-cyano-N'-[2-(2-chlorophenyl)ethyl]-3-pyridinecarboximidamide which is thought to be a wellknown compound most similar to the compound of the present invention (see Japanese Patent Laid-Open Publication No. 163061/1991).
Experiments were carried out with beagles (body weight, 9.2-10.4 kg) under anesthetization by intravenous administering 30 mg/kg of pentobarbital sodium. A cannula was inserted into the right femoral artery for measuring blood pressure. […]

[2] = test system: renal hypertensive beagles, blood pressure; experiment: Antihypertensive activities on renal hypertensive beagles (oral); type: in vivo, dog (2-kidney-1-clipped renal hypertensive beagles)
Method: Beagles (body weight, 9.0-11.0 kg) were anesthetized with 30 mg/kg of pentobarbital sodium intravenously. The left renal artery was carefully exposed through a flank incision, and wound with two silk sutures and ligated together with a 18G needle (external diameter; 1.2 mm) at two positions with the distance of 5 mm. A polyethylene tube for the measurement of blood pressure (IMG, PE-100) was inserted into the femoral artery, and the other terminal of the tube was exteriorized at the back of the neck. The polyethylene tube was filled with physiological saline containing 500 U/ml of heparin and sealed with a steel wire plug except on the measurement of the blood pressure. Antibiotics (penicilline and streptomycin, manufactured by Meiji Seika) were administered intramuscularly for three days after operation to prevent infections.
After 5-amino-N-cyano-N'-[2-(2-chlorophenyl)ethyl]-3-pyridinecarboximidamide was put into a No. 3 gelatin capsule, a gap was filled with lactose (100 mesh). The capsule was administered orally, and blood pressure was measured for 24 hours after administering the drug. Measurement was carried out without anesthetization under suspension with sling sheet. Blood pressure was measured by connecting the tube for measuring blood pressure to a pressure transducer (TP-400T; manufactured by Nihon Kohden) and recorded on a polygraph.

[3] = Acute toxicity, oral, Compound No. 6; type: in vivo, rat (male SD rats, 5 weeks old); conditions: rat, in vivo, male SD rats (5 weeks old)
Method: (§1) Acute toxicity of 5-amino-N-cyano-N'-[2-(2-chlorophenyl)ethyl]-3-pyridinecarboximidamide (Compound No. 6) of the present invention on oral administration was examined with male SD rats (5 weeks old). As a result, no rats died at the dose of 50 mg/kg. LD50 was in the range over 50 mg/kg.

male SD rats = experiment: Acute toxicity, oral, Compound No. 6; type: in vivo, rat (male SD rats, 5 weeks old); conditions: 50 mg/kg, male SD rats
Method: as §1

## N#CNC(=NCCc1ccccc1Cl)c1cncc(N)c1 [Compound No. 6, 5-amino-N-cyano-N'-[2-(2-chlorophenyl)ethyl]-3-pyridinecarboximidamide]
[1]
  ED20: 4.6 µg/kg
beagles, blood pressure; i.v., 3-30 μg/kg
  decrease in blood pressure: Dose-dependent decrease in blood pressure was observed
beagles, blood pressure; i.v., dose 3 μg/kg
  duration of the antihypertensive action: 10 min
beagles, blood pressure; i.v., dose 3 μg/kg, 0 min after dosage
  Antihypertensive activity (%): 0.0%
beagles, blood pressure; i.v., dose 3 μg/kg, 1 min after dosage
  Antihypertensive activity (%): -3.9%
beagles, blood pressure; i.v., dose 3 μg/kg, 2 min after dosage
  Antihypertensive activity (%): -12.8%
beagles, blood pressure; i.v., dose 3 μg/kg, 3 min after dosage
  Antihypertensive activity (%): -10.3%
beagles, blood pressure; i.v., dose 3 μg/kg, 5 min after dosage
  Antihypertensive activity (%): -6.4%
beagles, blood pressure; i.v., dose 3 μg/kg, 7.5 min after dosage
  Antihypertensive activity (%): -3.9%
beagles, blood pressure; i.v., dose 3 μg/kg, 10 min after dosage
  Antihypertensive activity (%): -3.9%
beagles, blood pressure; i.v., dose 10 μg/kg
  duration of the antihypertensive action: 45 min
beagles, blood pressure; i.v., dose 10 μg/kg, 0 min after dosage
  Antihypertensive activity (%): 0.0%
beagles, blood pressure; i.v., dose 10 μg/kg, 1 min after dosage
  Antihypertensive activity (%): -16.0%
beagles, blood pressure; i.v., dose 10 μg/kg, 2 min after dosage
  Antihypertensive activity (%): -22.7%
beagles, blood pressure; i.v., dose 10 μg/kg, 3 min after dosage
  Antihypertensive activity (%): -26.7%
beagles, blood pressure; i.v., dose 10 μg/kg, 5 min after dosage
  Antihypertensive activity (%): -26.7%
beagles, blood pressure; i.v., dose 10 μg/kg, 7.5 min after dosage
  Antihypertensive activity (%): -26.7%
beagles, blood pressure; i.v., dose 10 μg/kg, 10 min after dosage
  Antihypertensive activity (%): -26.7%
beagles, blood pressure; i.v., dose 10 μg/kg, 15 min after dosage
  Antihypertensive activity (%): -20.0%
beagles, blood pressure; i.v., dose 10 μg/kg, 20 min after dosage
  Antihypertensive activity (%): -16.0%
beagles, blood pressure; i.v., dose 10 μg/kg, 30 min after dosage
  Antihypertensive activity (%): -13.3%
beagles, blood pressure; i.v., dose 10 μg/kg, 45 min after dosage
  Antihypertensive activity (%): -6.7%
beagles, blood pressure; i.v., dose 30 μg/kg
  duration of the antihypertensive action: 60 min
beagles, blood pressure; i.v., dose 30 μg/kg, 0 min after dosage
  Antihypertensive activity (%): 0.0%
beagles, blood pressure; i.v., dose 30 μg/kg, 1 min after dosage
  Antihypertensive activity (%): -29.3%
beagles, blood pressure; i.v., dose 30 μg/kg, 2 min after dosage
  Antihypertensive activity (%): -40.0%
beagles, blood pressure; i.v., dose 30 μg/kg, 3 min after dosage
  Antihypertensive activity (%): -42.7%
beagles, blood pressure; i.v., dose 30 μg/kg, 5 min after dosage
  Antihypertensive activity (%): -46.7%
beagles, blood pressure; i.v., dose 30 μg/kg, 7.5 min after dosage
  Antihypertensive activity (%): -44.0%
beagles, blood pressure; i.v., dose 30 μg/kg, 10 min after dosage
  Antihypertensive activity (%): -42.7%
beagles, blood pressure; i.v., dose 30 μg/kg, 15 min after dosage
  Antihypertensive activity (%): -40.0%
beagles, blood pressure; i.v., dose 30 μg/kg, 20 min after dosage
  Antihypertensive activity (%): -36.0%
beagles, blood pressure; i.v., dose 30 μg/kg, 30 min after dosage
  Antihypertensive activity (%): -33.3%
beagles, blood pressure; i.v., dose 30 μg/kg, 45 min after dosage
  Antihypertensive activity (%): -24.0%
beagles, blood pressure; i.v., dose 30 μg/kg, 60 min after dosage
  Antihypertensive activity (%): -16.0%
beagles, blood pressure; summary statement
  antihypertensive activity determined with the passage of time: extremely potent and sustainable
[2]; 0.25 mg/kg p.o., 0 hour after administration
  Average blood pressure: 122.4 ± 4.4 mmHg
[2]; 0.25 mg/kg p.o., 1 hour after administration
  Average blood pressure: 100.9 ± 7.4 mmHg
[2]; 0.25 mg/kg p.o., 2 hour after administration
  Average blood pressure: 85.7 ± 0.3 mmHg
[2]; 0.25 mg/kg p.o., 4 hour after administration
  Average blood pressure: 102.8 ± 3.9 mmHg
[2]; 0.25 mg/kg p.o., 6 hour after administration
  Average blood pressure: 110.1 ± 2.6 mmHg
[2]; 0.25 mg/kg p.o., 8 hour after administration
  Average blood pressure: 112.6 ± 3.4 mmHg
[2]; 0.25 mg/kg p.o., 24 hour after administration
  Average blood pressure: 118.8 ± 4.8 mmHg
[2]; 0.50 mg/kg p.o., 0 hour after administration
  Average blood pressure: 126.6 ± 0.5 mmHg
[2]; 0.50 mg/kg p.o., 1 hour after administration
  Average blood pressure: 68.1 ± 7.4 mmHg
[2]; 0.50 mg/kg p.o., 2 hour after administration
  Average blood pressure: 84.8 ± 6.1 mmHg
[2]; 0.50 mg/kg p.o., 4 hour after administration
  Average blood pressure: 99.7 ± 12.3 mmHg
[2]; 0.50 mg/kg p.o., 6 hour after administration
  Average blood pressure: 106.2 ± 9.5 mmHg
[2]; 0.50 mg/kg p.o., 8 hour after administration
  Average blood pressure: 114.4 ± 7.3 mmHg
[2]; 0.50 mg/kg p.o., 24 hour after administration
  Average blood pressure: 111.8 ± 3.9 mmHg
[2]; oral, 0.25 and 0.5 mg/kg
  decrease in blood pressure: successive decrease in blood pressure was observed
[3]
  LD50: > 50000 µg/kg
Male SD rats
  deaths: no rats died
